Experimental data published in ChEMBL document CHEMBL5154787 (J Med Chem, 2022).

Key:
[1] = Drug concentration in STZ-induced diabetic peripheral neuropathic mechanical allodynia in overnight fasted Sprague-Dawley rat spinal cord at 1 mg/kg, po measured at 5.75 hrs post dose; type: ADME, organism-based; details: read-out: Ct
[2] = target: AP2-associated protein kinase 1 (Mus musculus, UniProt Q3UHJ0); test: Displacement of 3H-LP-927443 from AAK1 in C57BL6 mouse brain homogenate assessed as inhibition constant incubated for 1 hr by liquid scintillation counter analysis; type: tissue-based
Chain of AP2-associated protein kinase 1 (Q3UHJ0 whole entry): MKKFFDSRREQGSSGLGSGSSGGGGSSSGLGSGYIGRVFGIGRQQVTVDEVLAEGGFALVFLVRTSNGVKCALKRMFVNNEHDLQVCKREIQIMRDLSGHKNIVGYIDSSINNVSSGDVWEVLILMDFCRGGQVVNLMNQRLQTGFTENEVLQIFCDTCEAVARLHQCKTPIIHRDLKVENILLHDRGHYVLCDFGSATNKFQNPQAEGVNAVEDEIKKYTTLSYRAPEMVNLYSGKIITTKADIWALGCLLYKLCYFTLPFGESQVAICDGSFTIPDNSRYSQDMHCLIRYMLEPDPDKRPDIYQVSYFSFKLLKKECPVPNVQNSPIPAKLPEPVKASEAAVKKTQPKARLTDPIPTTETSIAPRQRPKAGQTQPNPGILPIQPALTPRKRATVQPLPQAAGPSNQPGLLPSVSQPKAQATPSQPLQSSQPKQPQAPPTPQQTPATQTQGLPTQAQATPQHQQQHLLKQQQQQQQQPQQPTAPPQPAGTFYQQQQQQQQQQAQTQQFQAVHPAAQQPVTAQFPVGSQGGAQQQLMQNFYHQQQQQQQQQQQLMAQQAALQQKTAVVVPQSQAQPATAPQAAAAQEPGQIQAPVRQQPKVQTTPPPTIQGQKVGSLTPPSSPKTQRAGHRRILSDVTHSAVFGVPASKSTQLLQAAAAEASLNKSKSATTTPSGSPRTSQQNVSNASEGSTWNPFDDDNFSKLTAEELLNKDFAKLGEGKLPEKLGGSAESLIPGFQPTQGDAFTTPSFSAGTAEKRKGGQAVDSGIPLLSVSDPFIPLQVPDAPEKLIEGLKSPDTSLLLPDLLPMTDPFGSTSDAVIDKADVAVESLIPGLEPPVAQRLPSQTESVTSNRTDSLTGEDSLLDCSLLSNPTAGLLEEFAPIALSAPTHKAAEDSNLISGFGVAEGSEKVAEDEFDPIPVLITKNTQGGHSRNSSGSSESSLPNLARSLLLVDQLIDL

[3] = Metabolic stability in rat liver microsomes assessed as parent compound remaining at 0.5 uM incubated for 10 mins in presence of NADPH by LC-MS/MS analysis; type: ADME, Microsome; details: read-out: Stability
[4] = Volume of distribution at steady state in rat at 3 mg/kg,po or 2 mg/kg,iv; type: ADME, organism-based; details: in vivo
[5] = Efflux ratio of permeability in human Caco-2 cells; type: ADME, cell-based
[6] = Oral bioavailability in rat at 3 mg/kg or 2 mg/kg,iv; type: ADME, organism-based; details: in vivo
[7] = Genotoxicity in Salmonella typhimurium by Ames test; type: toxicity; details: salmonella enterica subsp. enterica serovar typhimurium
[8] = Solubility of compound at pH 3 measured after 24 hrs; type: physicochemical; details: buffer
Rattus norvegicus [9] = test: Analgesic activity in CCI induced tactile allodynia in Sprague-Dawley rat assessed as reduction in pain response at 3 mg/kg, po by Hargreaves test relative to control; type: functional; design: scale not given: the % may be the effect or the level left
[10] = Plasma concentration in CCI induced tactile allodynia in Sprague-Dawley rat at 3 mg/kg, po measured at 7.5 hrs post dose; type: ADME, organism-based
[11] = Drug concentration in CCI induced tactile allodynia in Sprague-Dawley rat spinal cord at 3 mg/kg, po measured at 7.5 hrs post dose; type: ADME, organism-based; details: read-out: Ct
[12] = Ratio of drug concentration in spinal cord to plasma in CCI induced tactile allodynia in Sprague-Dawley rat at 3 mg/kg, po measured at 7.5 hrs post dose; type: ADME, organism-based
[13] = Plasma concentration in STZ-induced diabetic peripheral neuropathic mechanical allodynia in overnight fasted Sprague-Dawley rat at 1 mg/kg, po measured at 5.75 hrs post dose; type: ADME, organism-based
[14] = Ratio of drug concentration in spinal cord to plasma in STZ-induced diabetic peripheral neuropathic mechanical allodynia in overnight fasted Sprague-Dawley rat at 1 mg/kg, po measured at 5.75 hrs post dose; type: ADME, organism-based
[15] = Permeability of compound at pH 5.5 incubated for 4 hrs by PAMPA assay; type: ADME; details: read-out: permeability
[16] = Permeability across apical to basolateral side in human Caco-2 cells; type: ADME, cell-based; details: read-out: permeability
[17] = Metabolic stability in mouse liver microsomes assessed as half life incubated at 0.5 uM for 10 mins in presence of NADPH by LC-MS/MS analysis; type: ADME, Microsome; details: for half-life at 0.5 µM: liver microsomes
[18] = Metabolic stability in cynomolgus monkey liver microsomes assessed as half life incubated at 0.5 uM for 10 mins in presence of NADPH by LC-MS/MS analysis; type: ADME, Macaca fascicularis, Microsome
Cytochrome P450 1A2 = target: T1, Cytochrome P450 1A2 (Homo sapiens, UniProt P05177); test: Inhibition of CYP1A2 (unknown origin) incubated for 10 mins in presence of NADPH by LC-MS/MS analysis; type: ADME
T1 sequence (P05177 whole entry): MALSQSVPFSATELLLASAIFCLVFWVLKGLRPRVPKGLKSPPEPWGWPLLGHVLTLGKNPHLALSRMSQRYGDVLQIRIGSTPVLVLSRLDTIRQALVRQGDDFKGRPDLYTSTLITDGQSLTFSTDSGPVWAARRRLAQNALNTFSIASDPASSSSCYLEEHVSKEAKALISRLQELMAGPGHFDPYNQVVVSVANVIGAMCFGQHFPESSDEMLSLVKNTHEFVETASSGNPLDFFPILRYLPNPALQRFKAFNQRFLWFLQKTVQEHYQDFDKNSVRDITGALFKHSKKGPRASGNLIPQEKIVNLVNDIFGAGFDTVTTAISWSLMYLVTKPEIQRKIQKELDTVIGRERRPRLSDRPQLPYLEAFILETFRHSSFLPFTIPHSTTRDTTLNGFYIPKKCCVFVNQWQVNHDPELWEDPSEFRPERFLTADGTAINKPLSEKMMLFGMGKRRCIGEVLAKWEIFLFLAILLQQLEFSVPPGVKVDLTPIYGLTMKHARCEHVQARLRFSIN

Cytochrome P450 2C19 = Cytochrome P450 2C19 (Homo sapiens, UniProt P33261); test: Inhibition of CYP2C19 (unknown origin) incubated for 10 mins in presence of NADPH by LC-MS/MS analysis; type: ADME
Chain of Cytochrome P450 2C19 (P33261 whole entry): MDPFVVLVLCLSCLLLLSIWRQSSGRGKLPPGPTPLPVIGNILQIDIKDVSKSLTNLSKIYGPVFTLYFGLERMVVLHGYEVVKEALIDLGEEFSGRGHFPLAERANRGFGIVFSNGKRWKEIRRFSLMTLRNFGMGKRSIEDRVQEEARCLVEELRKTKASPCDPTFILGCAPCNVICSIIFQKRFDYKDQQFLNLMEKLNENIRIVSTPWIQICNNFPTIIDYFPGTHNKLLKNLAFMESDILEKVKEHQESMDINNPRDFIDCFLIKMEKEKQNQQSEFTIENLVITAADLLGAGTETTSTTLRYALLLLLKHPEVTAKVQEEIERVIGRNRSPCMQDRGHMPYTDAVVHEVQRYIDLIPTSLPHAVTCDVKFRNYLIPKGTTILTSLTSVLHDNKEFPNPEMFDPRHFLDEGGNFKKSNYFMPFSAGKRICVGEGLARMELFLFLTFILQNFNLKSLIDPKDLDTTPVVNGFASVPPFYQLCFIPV

Cytochrome P450 2D6 = Cytochrome P450 2D6 (Homo sapiens, UniProt P10635); test: Inhibition of CYP2D6 (unknown origin) incubated for 10 mins in presence of NADPH by LC-MS/MS analysis; type: ADME
Chain of Cytochrome P450 2D6 (P10635 whole entry): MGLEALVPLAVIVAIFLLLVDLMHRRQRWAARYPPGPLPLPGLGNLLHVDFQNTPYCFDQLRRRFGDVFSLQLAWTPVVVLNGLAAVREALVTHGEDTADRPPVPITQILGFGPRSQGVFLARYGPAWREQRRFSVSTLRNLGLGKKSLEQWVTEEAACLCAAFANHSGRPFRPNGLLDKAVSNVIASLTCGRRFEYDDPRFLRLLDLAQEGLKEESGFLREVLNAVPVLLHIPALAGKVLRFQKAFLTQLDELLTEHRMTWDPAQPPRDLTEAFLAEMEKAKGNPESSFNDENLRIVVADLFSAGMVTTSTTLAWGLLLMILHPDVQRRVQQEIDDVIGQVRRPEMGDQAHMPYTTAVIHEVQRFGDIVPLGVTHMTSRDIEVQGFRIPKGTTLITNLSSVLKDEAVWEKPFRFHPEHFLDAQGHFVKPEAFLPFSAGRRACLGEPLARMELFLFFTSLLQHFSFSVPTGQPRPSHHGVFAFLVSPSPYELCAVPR

[19] = target: Voltage-gated inwardly rectifying potassium channel KCNH2 (Homo sapiens, UniProt Q12809); test: Inhibition of human ERG by patch clamp assay; type: toxicity
[20] = Inhibition of calcium channel (unknown origin); design: species or system Homo sapiens
[21] = target: BMP-2-inducible protein kinase (Homo sapiens, UniProt Q9NSY1); test: Inhibition of BIKE (unknown origin)
Chain of BMP-2-inducible protein kinase (Q9NSY1 whole entry): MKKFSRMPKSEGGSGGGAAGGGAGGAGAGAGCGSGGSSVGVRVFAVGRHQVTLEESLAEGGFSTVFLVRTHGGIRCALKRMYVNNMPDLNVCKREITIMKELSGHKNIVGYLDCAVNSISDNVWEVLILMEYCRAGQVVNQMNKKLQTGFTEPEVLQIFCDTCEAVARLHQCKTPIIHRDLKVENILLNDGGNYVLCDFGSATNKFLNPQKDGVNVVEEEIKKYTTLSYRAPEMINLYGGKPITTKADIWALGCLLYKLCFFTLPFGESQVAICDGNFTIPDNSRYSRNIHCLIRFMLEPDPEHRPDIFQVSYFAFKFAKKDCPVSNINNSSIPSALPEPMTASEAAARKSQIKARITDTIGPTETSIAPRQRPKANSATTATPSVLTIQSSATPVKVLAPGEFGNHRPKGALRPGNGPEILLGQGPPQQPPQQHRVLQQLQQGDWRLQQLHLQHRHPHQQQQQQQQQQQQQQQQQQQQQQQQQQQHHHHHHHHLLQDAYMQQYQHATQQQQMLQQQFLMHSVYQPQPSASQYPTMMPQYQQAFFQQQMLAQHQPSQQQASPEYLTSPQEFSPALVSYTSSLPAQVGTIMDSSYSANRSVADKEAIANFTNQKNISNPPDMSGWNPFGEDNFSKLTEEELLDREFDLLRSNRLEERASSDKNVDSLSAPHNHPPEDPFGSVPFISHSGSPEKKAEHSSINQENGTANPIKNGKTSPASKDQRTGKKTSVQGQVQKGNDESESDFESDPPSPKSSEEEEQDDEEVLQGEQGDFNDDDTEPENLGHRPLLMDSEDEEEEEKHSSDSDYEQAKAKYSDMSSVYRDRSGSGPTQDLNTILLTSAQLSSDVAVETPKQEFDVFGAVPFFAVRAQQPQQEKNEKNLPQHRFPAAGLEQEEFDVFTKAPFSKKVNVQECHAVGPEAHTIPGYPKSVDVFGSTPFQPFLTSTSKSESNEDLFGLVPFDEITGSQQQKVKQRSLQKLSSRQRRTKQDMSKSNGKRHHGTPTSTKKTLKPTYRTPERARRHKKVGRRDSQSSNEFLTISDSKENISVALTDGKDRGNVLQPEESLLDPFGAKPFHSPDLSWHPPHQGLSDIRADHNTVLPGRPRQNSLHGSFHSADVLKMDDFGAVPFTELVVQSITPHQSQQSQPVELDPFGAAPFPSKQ

[22] = target: MAP kinase-interacting serine/threonine-protein kinase 1 (Homo sapiens, UniProt Q9BUB5); test: Inhibition of MNK1 (unknown origin)
Chain of MAP kinase-interacting serine/threonine-protein kinase 1 (Q9BUB5 whole entry): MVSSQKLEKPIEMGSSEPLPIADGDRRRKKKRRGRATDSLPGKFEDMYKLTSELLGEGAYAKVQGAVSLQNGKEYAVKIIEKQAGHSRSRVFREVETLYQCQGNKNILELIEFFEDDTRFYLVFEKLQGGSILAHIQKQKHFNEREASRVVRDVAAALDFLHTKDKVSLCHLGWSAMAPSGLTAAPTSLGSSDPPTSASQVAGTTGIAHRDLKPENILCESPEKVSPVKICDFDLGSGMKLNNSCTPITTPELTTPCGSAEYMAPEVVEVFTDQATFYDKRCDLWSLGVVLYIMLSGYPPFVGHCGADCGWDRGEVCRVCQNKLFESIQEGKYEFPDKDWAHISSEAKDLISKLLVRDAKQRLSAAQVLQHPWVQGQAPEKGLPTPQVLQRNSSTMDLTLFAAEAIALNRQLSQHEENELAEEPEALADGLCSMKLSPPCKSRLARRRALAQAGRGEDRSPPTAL

[23] = target: MAP kinase-interacting serine/threonine-protein kinase 2 (Homo sapiens, UniProt Q9HBH9); test: Inhibition of MNK2 (unknown origin)
Chain of MAP kinase-interacting serine/threonine-protein kinase 2 (Q9HBH9 whole entry): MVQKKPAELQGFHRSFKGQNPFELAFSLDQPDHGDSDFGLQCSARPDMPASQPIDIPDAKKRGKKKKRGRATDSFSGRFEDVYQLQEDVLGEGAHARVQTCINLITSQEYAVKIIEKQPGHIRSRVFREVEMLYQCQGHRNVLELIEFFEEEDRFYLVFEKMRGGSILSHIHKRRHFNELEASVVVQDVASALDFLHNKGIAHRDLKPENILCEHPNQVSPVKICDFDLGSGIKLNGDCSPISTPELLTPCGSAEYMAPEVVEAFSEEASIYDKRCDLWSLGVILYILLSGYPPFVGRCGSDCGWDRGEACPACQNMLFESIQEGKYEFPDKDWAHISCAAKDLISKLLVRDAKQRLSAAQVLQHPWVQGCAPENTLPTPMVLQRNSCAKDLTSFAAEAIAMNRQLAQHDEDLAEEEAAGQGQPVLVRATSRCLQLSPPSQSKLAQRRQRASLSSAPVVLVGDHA

[24] = target: Myosin light chain kinase 2, skeletal/cardiac muscle (Homo sapiens, UniProt Q9H1R3); test: Inhibition of MYLK2 (unknown origin)
[25] = Protein binding in mouse plasma assessed as unbound fraction measured after 3 hrs by LC/MS/MS analysis; type: ADME, cell-free
Cytochrome P450 3A4 [26] = target: T2, Cytochrome P450 3A4 (Homo sapiens, UniProt P08684); test: Time dependent inhibition of […] (unknown origin) using BFC as substrate incubated for 5 mins in presence of NADPH by LC-MS/MS analysis; type: ADME
T2 sequence (P08684 whole entry): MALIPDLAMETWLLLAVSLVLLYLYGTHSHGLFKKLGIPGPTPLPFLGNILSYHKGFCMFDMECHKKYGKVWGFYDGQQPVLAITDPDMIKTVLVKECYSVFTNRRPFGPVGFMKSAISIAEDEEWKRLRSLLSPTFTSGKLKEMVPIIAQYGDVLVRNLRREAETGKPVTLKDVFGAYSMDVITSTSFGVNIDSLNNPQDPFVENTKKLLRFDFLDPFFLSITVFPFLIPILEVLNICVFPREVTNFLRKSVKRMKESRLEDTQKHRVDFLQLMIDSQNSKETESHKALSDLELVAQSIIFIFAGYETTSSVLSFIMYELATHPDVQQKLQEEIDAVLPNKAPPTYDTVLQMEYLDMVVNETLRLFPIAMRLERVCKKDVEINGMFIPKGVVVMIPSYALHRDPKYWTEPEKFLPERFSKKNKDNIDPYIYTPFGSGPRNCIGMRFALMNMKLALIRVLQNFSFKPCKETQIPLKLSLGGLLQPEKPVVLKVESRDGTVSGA

Cytochrome P450 3A4 [27] = target: T2, Cytochrome P450 3A4; test: Time dependent inhibition of […] (unknown origin) using BFC as substrate incubated for 30 mins in presence of NADPH by LC-MS/MS analysis; type: ADME
Cytochrome P450 3A4 [28] = target: T2, Cytochrome P450 3A4; test: Time dependent inhibition of […] (unknown origin) using MDZ as substrate incubated for up to 30 mins in presence of NADPH by LC-MS/MS analysis; type: ADME
Cytochrome P450 3A4 [29] = target: T2, Cytochrome P450 3A4; test: Time dependent inhibition of […] (unknown origin) using TST as substrate incubated for up to 30 mins in presence of NADPH by LC-MS/MS analysis; type: ADME
[30] = target: Sodium-dependent noradrenaline transporter (Homo sapiens, UniProt P23975); test: Inhibition of NET (unknown origin); type: toxicity
[31] = target: Neuronal acetylcholine receptor subunit alpha-7 (Homo sapiens, UniProt P36544); test: Inhibition of nicotinic acetylcholine receptor alpha 7 (unknown origin); type: toxicity
Chain of Neuronal acetylcholine receptor subunit alpha-7 (P36544 whole entry): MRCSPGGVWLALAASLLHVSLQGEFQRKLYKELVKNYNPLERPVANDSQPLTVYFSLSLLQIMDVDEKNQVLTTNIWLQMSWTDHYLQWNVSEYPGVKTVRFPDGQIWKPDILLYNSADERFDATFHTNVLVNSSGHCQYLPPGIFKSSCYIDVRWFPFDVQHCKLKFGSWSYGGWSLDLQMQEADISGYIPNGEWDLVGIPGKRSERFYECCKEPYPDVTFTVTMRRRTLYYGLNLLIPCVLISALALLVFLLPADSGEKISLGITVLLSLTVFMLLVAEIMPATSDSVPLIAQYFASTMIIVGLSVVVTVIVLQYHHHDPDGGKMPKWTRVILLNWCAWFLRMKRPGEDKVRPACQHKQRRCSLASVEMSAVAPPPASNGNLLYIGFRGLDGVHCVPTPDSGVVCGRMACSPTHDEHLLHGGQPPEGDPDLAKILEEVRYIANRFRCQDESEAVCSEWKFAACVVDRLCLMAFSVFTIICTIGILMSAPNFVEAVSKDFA

[32] = Plasma concentration in CCI induced thermal hyperalgesia in Sprague-Dawley rat at 1 mg/kg, po measured at 5.5 hrs post dose; type: ADME, organism-based
Rattus norvegicus [33] = test: Analgesic activity in CCI induced thermal hyperalgesia in Sprague-Dawley rat assessed as reduction in thermal hyperalgesia by measuring inhibition of pain response at 1 mg/kg, po measured after 5.5 hrs by Hargreaves test relative to control; type: functional; design: scale not given: the % may be the effect or the level left

concentration at 5.75 h [1] [nM]	Ki [2] [nM]	remaining at 10 min, 0.5 µM [3] [%]	Vdss [4] [L/kg]	efflux ratio [5]	bioavailability [6] [%]	concentration at 7.5 h [10] [nM]	concentration at 7.5 h [11] [nM]	Kp at 7.5 h [12]	Papp at 4 h [15] [×10⁻⁶ cm/s]	Papp A→B [16] [×10⁻⁶ cm/s]	half-life at 0.5 µM [18] [h]	IC50 (Cytochrome P450 1A2) [µM]	IC50 (Cytochrome P450 2C19) [µM]	IC50 (Cytochrome P450 2D6) [µM]	IC50 [20] [µM]	IC50 [21] [µM]	IC50 [23] [µM]	Compound	Activity [7]	Activity (Rattus norvegicus [9]) [%]	further results
213	0.29	95	16.3	1.1	94	500	4400	8.8	82.4	35.7	0.85	> 20	> 20	> 20	16	0.09	1.5	COC(=O)Nc1cc(-c2ccc(OC[C@@](C)(N)CC(C)C)c(C)n2)ccn1	Non-Toxic	80	solubility at 24 h [8]: > 1000 µg/mL; concentration at 5.75 h [13]: 80 nM; Kp at 5.75 h [14]: 2.7; half-life at 0.5 µM [17]: 1.53 h; IC50 [19]: 5.9 µM; IC50 [22]: 0.19 µM; IC50 [24]: 1.8 µM
	0.21	83	30.9	1	77	140	720	5.1	56.5	17.2	1.28	> 20	> 20	> 20	35.3	0.01	1.3	COC(=O)Nc1cc(-c2cnc(OC[C@@](C)(N)CC(C)C)c(C)c2)ccn1		60	fraction unbound at 3 h [25]: 0.049; t1/2 ([17]; microsomes, 10 min, 0.5 µM): 0.9 h; IC50 (Cytochrome P450 3A4 [26]): > 20 µM; IC50 (Cytochrome P450 3A4 [27]): > 20 µM; IC50 (Cytochrome P450 3A4 [28]): > 40 µM; IC50 (Cytochrome P450 3A4 [29]): > 40 µM; IC50 [30]: 5 µM; IC50 [31]: 4.5 µM
213	0.05	85	41.3	0.7	22				40.6	23.5	0.293	> 20	> 20	> 20	18.8	0.18	1.6	CC(C)C[C@](C)(N)COc1cnc(-c2ccnc(C(F)F)c2)cc1C(F)F	Non-Toxic		concentration at 5.5 h [32]: 12 nM; concentration at 5.75 h [13]: 80 nM; Kp at 5.75 h [14]: 2.7; fraction unbound at 3 h [25]: 0.065; half-life at 0.5 µM [17]: > 2 h; IC50 (Cytochrome P450 3A4 [26]): > 20 µM; IC50 (Cytochrome P450 3A4 [27]): > 20 µM; IC50 (Cytochrome P450 3A4 [28]): > 40 µM; IC50 (Cytochrome P450 3A4 [29]): > 40 µM; IC50 [19]: 1.3 µM; IC50 [30]: 1.8 µM; IC50 [31]: 4 µM; Activity (Rattus norvegicus [33]): 80%; IC50 [22]: 0.26 µM; IC50 [24]: 0.45 µM
